This passage reports EC50 and Emax results from US9944603B2, “Compounds and methods for the treatment of cystic fibrosis” (Flatley Discovery Lab, LLC, priority 2013, dated 2018).

This test deals with T1, human F508del CFTR (Homo sapiens, UniProt P13569, DEL508-508).
T1 construct: expressed in transfected cells
The test can be described thus: CFTR-YFP Assay, CFTR Corrector Protocol (YFP flux assay). The format is cell-based. As to conditions: for Emax: normalized to the positive control, read-out: EMAX (% Efficacy, EMAX normalized to the positive control).

The term EC50 denotes the concentration that produces a half-maximal response. A low value points to greater potency. In general, Emax refers to the maximal effect, on the per cent scale that the assay sets.

T1 sequence (P13569 with tags, fused parts or gaps DEL508-508): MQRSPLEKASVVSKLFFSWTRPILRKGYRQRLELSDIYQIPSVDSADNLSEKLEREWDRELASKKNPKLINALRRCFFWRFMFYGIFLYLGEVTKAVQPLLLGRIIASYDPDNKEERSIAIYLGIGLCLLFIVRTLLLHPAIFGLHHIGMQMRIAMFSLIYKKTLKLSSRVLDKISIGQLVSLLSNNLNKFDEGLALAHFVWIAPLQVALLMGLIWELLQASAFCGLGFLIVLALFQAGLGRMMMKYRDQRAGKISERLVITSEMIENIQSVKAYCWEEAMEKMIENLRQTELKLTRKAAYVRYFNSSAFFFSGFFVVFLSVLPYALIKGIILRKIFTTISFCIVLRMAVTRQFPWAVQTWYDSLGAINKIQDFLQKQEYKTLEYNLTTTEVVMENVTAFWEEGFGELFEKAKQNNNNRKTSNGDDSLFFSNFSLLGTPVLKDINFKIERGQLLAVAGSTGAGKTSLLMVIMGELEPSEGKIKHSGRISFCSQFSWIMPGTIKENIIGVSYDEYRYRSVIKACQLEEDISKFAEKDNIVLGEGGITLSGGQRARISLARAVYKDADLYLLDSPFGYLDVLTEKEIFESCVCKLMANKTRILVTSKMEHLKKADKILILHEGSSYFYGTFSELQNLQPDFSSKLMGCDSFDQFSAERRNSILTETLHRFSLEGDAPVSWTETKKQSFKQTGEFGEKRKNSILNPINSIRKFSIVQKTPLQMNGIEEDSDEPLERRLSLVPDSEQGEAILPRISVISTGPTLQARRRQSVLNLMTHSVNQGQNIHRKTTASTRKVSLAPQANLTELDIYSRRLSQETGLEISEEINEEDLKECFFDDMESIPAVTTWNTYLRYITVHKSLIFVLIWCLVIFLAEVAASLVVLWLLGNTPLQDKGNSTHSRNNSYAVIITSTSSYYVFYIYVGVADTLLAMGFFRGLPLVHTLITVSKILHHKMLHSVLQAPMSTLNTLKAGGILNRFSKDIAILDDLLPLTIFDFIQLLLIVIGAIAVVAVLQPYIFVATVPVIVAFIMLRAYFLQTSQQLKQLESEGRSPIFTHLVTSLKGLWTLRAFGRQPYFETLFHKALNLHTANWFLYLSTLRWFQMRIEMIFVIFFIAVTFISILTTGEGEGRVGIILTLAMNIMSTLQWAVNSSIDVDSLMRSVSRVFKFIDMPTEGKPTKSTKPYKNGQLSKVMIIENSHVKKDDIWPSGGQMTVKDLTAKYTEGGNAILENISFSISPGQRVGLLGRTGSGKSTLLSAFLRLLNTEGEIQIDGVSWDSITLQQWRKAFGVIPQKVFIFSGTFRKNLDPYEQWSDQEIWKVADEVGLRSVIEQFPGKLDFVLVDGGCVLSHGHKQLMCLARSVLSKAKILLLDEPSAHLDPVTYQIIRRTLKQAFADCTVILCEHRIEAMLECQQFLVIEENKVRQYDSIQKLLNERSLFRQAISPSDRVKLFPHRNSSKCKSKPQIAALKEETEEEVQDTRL

Take `O=S(=O)(c1ccc2c(c1)OC(F)(F)O2)N1CCC(n2c(-c3ccncc3Cl)nc3cccnc32)CC1` [Example 38]: the EC50 was < 10 µM and the Emax is > 80%.

For the compound `O=S(=O)(c1ccc2c(c1)OC(F)(F)O2)N1CCC(n2c(-c3ccccc3Cl)nc3cccnc32)CC1` [Example 39], the EC50 is < 10 µM and the Emax lay within 30 to 80%.

For `O=S(=O)(c1ccc2c(c1)OC(F)(F)O2)N1CCC(n2c(-c3ccncc3Cl)nc3ncccc32)CC1` [Example 40], the EC50 is < 10 µM and the Emax lay within 30 to 80%.

`CCc1ccc(S(=O)(=O)N2CCC(n3c(-c4ccncc4Cl)nc4cccnc43)CC2)cc1` [Example 41]: the EC50 was < 10 µM and the Emax lay in the range of 30 to 80%.

As for `CCc1ccc(S(=O)(=O)N2CCC(n3c(-c4ccncc4Cl)nc4ccc(OC)nc43)CC2)cc1` [Example 42], the EC50 was < 10 µM and the Emax fell in the range of 30 to 80%.

With `Cc1ccc2nc(-c3ccc(F)cc3F)n(C3CCN(S(=O)(=O)c4ccc5c(c4)OC(F)(F)O5)CC3)c2n1` [Example 43], the EC50 was < 10 µM and the Emax is 30 to 80%.

Consider `[2H]C1([2H])Oc2ccc(S(=O)(=O)N3CCC(n4c(-c5ccncc5Cl)nc5cccnc54)CC3)cc2O1` [Example 44], for which the concentration for a half-maximal effect (EC50) was < 10 µM and the Emax lay in the range of 30 to 80%.

For the compound `CCc1ccc(S(=O)(=O)N2CCC(n3c(-c4cccnc4Cl)nc4cccnc43)CC2)cc1` [Example 45], the EC50 is < 10 µM and the Emax was in the range of 30 to 80%.

Turning to `O=S(=O)(c1ccc(OC(F)F)cc1)N1CCC(n2c(-c3ccccc3Cl)nc3cccnc32)CC1` [Example 46], the concentration for a half-maximal effect (EC50) was < 10 µM and the Emax fell in the range of 30 to 80%.

`CCc1ccc(S(=O)(=O)N2CCC(n3c(-c4ccc(F)cc4F)nc4cccnc43)CC2)cc1` [Example 47]: the EC50 is < 10 µM and the Emax lay in the range of 30 to 80%.

As to `O=S(=O)(c1ccc2c(c1)OC(F)(F)O2)N1CCC(n2c(-c3ccccc3)nc3cccnc32)CC1` [Example 48], the EC50 is < 10 µM and the Emax lay in the range of 30 to 80%.

As to `COc1ccc(S(=O)(=O)N2CCC(n3c(-c4ccccc4C(F)(F)F)nc4cccnc43)CC2)cc1Cl` [Example 49], the EC50 was < 10 µM and the maximal response (Emax) fell in the range of 30 to 80%.

For `COc1ccc(S(=O)(=O)N2CCC(n3c(-c4ccccc4C#N)nc4cccnc43)CC2)cc1Cl` [Example 50], the EC50 was < 10 µM and the Emax is 30 to 80%.

Consider `O=S(=O)(c1ccc2c(c1)CCC2)N1CCC(n2c(-c3ccncc3F)nc3cccnc32)CC1` [Example 51], for which the EC50 is < 10 µM and the maximal effect (Emax) was 30 to 80%.

`O=S(=O)(c1ccc2c(c1)OC(F)(F)O2)N1CCC(n2c(-c3ccncc3F)nc3cccnc32)CC1` [Example 52]: the EC50 is < 10 µM and the Emax was in the range of 30 to 80%.

Take `COc1ccc(S(=O)(=O)N2CCC(n3c(-c4ccc(F)cc4F)nc4cccnc43)CC2)cc1Cl` [Example 53]: the EC50 is < 10 µM and the maximum response (Emax) fell in the range of 30 to 80%.

Regarding `Cc1ccc2nc(-c3ncccc3Cl)n(C3CCN(S(=O)(=O)c4ccc5c(c4)OC(F)(F)O5)CC3)c2n1` [Example 54], the EC50 was < 10 µM and the Emax lay within 30 to 80%.

Turning to `COc1ccc(S(=O)(=O)N2CCC(n3c(-c4ccccc4OC)nc4cccnc43)CC2)cc1Cl` [Example 55], the EC50 was < 10 µM and the Emax fell in the range of 30 to 80%.

Turning to `O=S(=O)(c1ccc(OC(F)F)cc1)N1CCC(n2c(-c3ccncc3Cl)nc3cccnc32)CC1` [Example 56], the EC50 is < 10 µM and the Emax is 30 to 80%.

Take `COc1ccc(S(=O)(=O)N2CCC(n3c(-c4ccc5c(c4)OCO5)nc4cccnc43)CC2)cc1Cl` [Example 57]: the EC50 was < 10 µM and the Emax lay within 30 to 80%.

With `COc1ccc2nc(-c3ccncc3Cl)n(C3CCN(S(=O)(=O)c4ccc(OC)c(Cl)c4)CC3)c2n1` [Example 58], the EC50 is < 10 µM and the Emax was in the range of 10 to 30%.
